According to US12343350B2, “Istaroxime-containing intravenous formulation for the treatment of acute heart failure (AHF)” (Windtree Therapeutics, Inc., priority 2019, dated 2025):
Marks after values point to notes of the source that are not given here.

Columns and labels:
STZ diabetic rats = experiment: Haemodynamics in streptozotocin (STZ) diabetic rats (echocardiography 2M-Doppler-Tissue Doppler); format: in vivo, rat
Experimental: Sprague Dawley male rats (150-175 g) were made diabetic by a single injection into the tail vein of a solution of streptozotocin (STZ, 50 mg/kg, Sigma-Aldrich), freshly prepared in 0.1 M sodium citrate buffer, pH 4.5. Control rats received citrate buffer. Fasting glycaemia was measured after 1 week and rats with values greater than 400 mg/dl were considered diabetic.
Eight to nine weeks after STZ injection, rats were submitted to transthoracic echocardiographic and Doppler evaluation performed under pentobarbital anesthesia. Two-dimensionally guided M-mode recordings were used to obtain short-axis measurements of left ventricular end-diastolic diameter (LVEDD), left ventricular end-systolic diameter (LVESD), posterior (PW) and septal (SW) diastolic wall thickness according to the American Society of Echocardiography guidelines (Lang R M et al., Eur J Echocardiography 2006; 7:79-108). Fractional shortening was calculated as FS=(LVEDD-LVESD)/LVEDD. Relative wall thickness was calculated as PWTd+IVSTd/LVEDD.
Mitral inflow was measured by pulsed Doppler at the tips of mitral leaflets from an apical 4-chamber view to obtain early and late filling velocities (E, A) and deceleration time of early filling velocity (DT). The deceleration slope was calculated as E/DT ratio. The mitral deceleration index was calculated as DT/E ratio.
Tissue Doppler Imaging (TDI) was evaluated from the apical 4-chamber view to record septal mitral annular movements, i.e., peak myocardial systolic (s′) and early and late diastolic velocity (e′ and a′).
The compound PST 3093 was iv administered to STZ injected rats at the dose of 0.22 mg/kg and echocardiographic parameters were measured after 15 and 30 min from the beginning of iv infusion and 10 min after interruption of infusion.

[1] = system: mouse (Albino Swiss CD-1); experiment: Acute toxicity (LD50) in mouse; format: in vivo; settings: single administration
Experimental: Acute toxicity has been determined in the mouse (Albino Swiss CD-1, body weight 30 g). Mice were orally treated, or intravenously injected, with single administration of increasing doses of the test substance to identify the dose causing 50% mortality. Mortality occurred within 30 min after the administration and survival after 24 h. The acute toxicity (LD50) was then assessed.
The acute toxicity of the tested compound PST 3093 was determined in the mouse (Albino Swiss CD-1, body weight 30 g). Compound PST 3093 was orally administered or intravenously injected at increasing doses to identify the dose causing 50% mortality. Mortality occurred within 30 min after the administration and survival after 24 h.

[2] = after 10 min from STOP infusion

For `C[C@]12CCC(=NOCC(=O)O)CC1[C@H](O)CC1C2CC[C@]2(C)C(=O)CCC12` (stereo partly drawn) [PST 3093, (E,Z)-[(6-beta-hydroxy-17-oxoandrostan-3-ylidene)amino]oxyacetic acid], the “CO, cardiac output” value (STZ diabetic rats; 0.22 mg/kg iv, after 15 min) was 231.7 ± 64 mL/min, the “DT, deceleration time of E wave” value (STZ diabetic rats; 0.22 mg/kg iv, after 15 min) was 40.2 ± 9.54 ms and the “DT/E, mitral deceleration index” value (STZ diabetic rats; 0.22 mg/kg iv, after 15 min) was 40.39 ± 15.04* s^2/m. For the same molecule, the “E, E wave, early filling velocity of mitral inflow” value (“E, E wave, early filling velocity” for short) (STZ diabetic rats; 0.22 mg/kg iv, after 15 min) was 1.048 ± 0.218, the “E/DT, decelaration slope” value (STZ diabetic rats; 0.22 mg/kg iv, after 15 min) was 27.51 ± 8.42 m/s^2 and the “E/e′, index of LV filling pressure” value (STZ diabetic rats; 0.22 mg/kg iv, after 15 min) was 38.61 ± 4.71. The “HR, heart rate” value (STZ diabetic rats; 0.22 mg/kg iv, after 15 min) was 271 ± 33 beat/min, the “SV, stroke volume” value (STZ diabetic rats; 0.22 mg/kg iv, after 15 min) was 0.85 ± 0.18 ml/beat and the “e′ TDI, early relaxation velocity” value (STZ diabetic rats; 0.22 mg/kg iv, after 15 min) was 27.01 ± 3.4 cm/s. The “CO, cardiac output” value (STZ diabetic rats; 0.22 mg/kg iv, after 30 min) was 230.6 ± 46.7 mL/min, the “DT, deceleration time of E wave” value (STZ diabetic rats; 0.22 mg/kg iv, after 30 min) was 36.6 ± 6.09 ms and the “DT/E, mitral deceleration index” value (STZ diabetic rats; 0.22 mg/kg iv, after 30 min) was 35.47 ± 10.19* s^2/m. For the same molecule, the “E, E wave, early filling velocity” value (STZ diabetic rats; 0.22 mg/kg iv, after 30 min) was 1.076 ± 0.211, the “E/DT, decelaration slope” value (STZ diabetic rats; 0.22 mg/kg iv, after 30 min) was 30.36 ± 8.73 m/s^2 and the “E/e′, index of LV filling pressure” value (STZ diabetic rats; 0.22 mg/kg iv, after 30 min) was 38.7 ± 4.26. For the same molecule, the “HR, heart rate” value (STZ diabetic rats; 0.22 mg/kg iv, after 30 min) was 269 ± 29 beat/min, the “SV, stroke volume” value (STZ diabetic rats; 0.22 mg/kg iv, after 30 min) was 0.86 ± 0.14 ml/beat and the “e′ TDI, early relaxation velocity” value (STZ diabetic rats; 0.22 mg/kg iv, after 30 min) was 27.77 ± 4.27 cm/s. The “CO, cardiac output” value (STZ diabetic rats; [2]) was 200.88 ± 51.7 mL/min, the “DT, deceleration time of E wave” value (STZ diabetic rats; [2]) was 41.88 ± 7.86 ms and the “DT/E, mitral deceleration index” value (STZ diabetic rats; [2]) was 49.08 ± 13.09* s^2/m. For the same molecule, the “E, E wave, early filling velocity” value (STZ diabetic rats; [2]) was 0.89 ± 0.19, the “E/DT, decelaration slope” value (STZ diabetic rats; [2]) was 22.36 ± 8.89 m/s^2 and the “E/e′, index of LV filling pressure” value (STZ diabetic rats; [2]) was 39.45 ± 4.18. For the same molecule, the “HR, heart rate” value (STZ diabetic rats; [2]) was 249 ± 28 beat/min, the “SV, stroke volume” value (STZ diabetic rats; [2]) was 0.81 ± 0.17 ml/beat and the “e′ TDI, early relaxation velocity” value (STZ diabetic rats; [2]) was 22.48 ± 3.35 cm/s. The LD50 ([1]; i.v.) was greater than 250 mg/kg and the LD50 ([1]; os (oral)) was greater than 200 mg/kg.
